Test results as given in patent US11572564B2, “Microorganisms for producing 1,4-butanediol and methods related thereto” (priority 2011, dated 2023).

Tests used:
E. coli = E. coli CO tolerance experiment (anaerobic growth with saturating CO); type: cell-based; settings: levels achievable at normal atmospheric pressure
Experimental: To test whether or not E. coli can grow anaerobically in the presence of saturating amounts of CO, cultures were set up in 120 ml serum bottles with 50 ml of Terrific Broth medium (plus reducing solution, NiCl2, Fe(II)NH4SO4, cyanocobalamin, IPTG, and chloramphenicol) as described above for anaerobic microbiology in small volumes. One half of these bottles were equilibrated with nitrogen gas for 30 min. and one half was equilibrated with CO gas for 30 min. An empty vector (pZA33) was used as a control, and cultures containing the pZA33 empty vector as well as both ACS90 and ACS91 were tested with both N2 and CO. All were inoculated and grown for 36 hrs with shaking (250 rpm) at 37° C. […] The bulk of the observed growth occurred overnight with a long lag.

[1] = 20° C. and 1 atm; cited from earlier work

With `[C-]#[O+]` [CO] as the compound, how does the “sensitivity of laboratory strains of E. coli to CO” value (E. coli) read?
The value was “insensitive”.

And the maximum water solubility [1]?
The maximum water solubility was 970 µM.
